Assay results from patent US20260022098A1, “BULLEYACONITINE A DERIVATIVE WITH ANALGESIC ACTIVITY, AND PREPARATION METHOD AND APPLICATION THEREOF” (priority 2023, published 2026).
Read-outs that look alike come from different tables or passages of the source. Marks after values point to notes of the source that are not given here.

Experiments:
[1] = tested on: Kunming mice; test: Analgesic activity by acetic acid-induced writhing method (writhing inhibition rate, ED50); assay type: in vivo; settings: Mus musculus, sc; for ED50: Probit regression, read-out: ED50; for inhibition in vivo at 0.05 mg/kg / inhibition in vivo at 0.5 mg/kg: read-out: Analgesia rate (%) ± SEM
Procedure, shortened: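 Kunming mice (22±2 g, 1:1 sex, 12 h fasted, 10/group) got compound s.c. (dissolved 1:1 molar with 0.1 mol/L HCl, diluted in saline); 0.7% acetic acid i.p. 15 min later, writhes counted over 15 min. Inhibition rate vs saline blank; ED50 by Probit regression over ≥5 doses.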

[2] = tested on: Kunming mice; test: Acute toxicity / median lethal dose (LD50) determination, subcutaneous injection; assay type: in vivo; set-up: key to Acute toxicity: if death occurred, (+) represented as positive; if no death occurred, (−) represented as negative; settings: mice administered 20 mg/kg subcutaneously, presence of death within 24 h
Procedure, shortened: (§1)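 Kunming mice (22±2 g, 1:1 male:female, fasted 12 h), 10 per group, given compound subcutaneously at 0.1 mL/10 g in saline after 1:1 molar dissolution in 0.1 mol/L HCl. At least 5 proportional dose groups set from a 20 mg/kg pilot; 24 h survival, LD50 by Probit regression.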

[3] = as above; assay type: in vivo, mice; set-up: key to Acute toxicity: if death occurred, (+) represented as positive; if no death occurred, (−) represented as negative; settings: both sexes, Kunming, mouse, in vivo, sc; mice, subcutaneous, survival within 24 h, Probit regression; >X = no death or toxic symptoms at X mg/kg
Procedure, shortened: as §1

[4] = tested on: Kunming mice; test: Calculation of therapeutic index (TI = LD50/ED50); assay type: in vivo
Method: (3) Calculation of Therapeutic Index (TI)
The therapeutic index of each compound was calculated based on the median effective dose and the median lethal dose, which were specifically as follows: therapeutic index (TI)=median lethal dose (LD50)/median effective dose (ED50).

[5] = tested on: RAW 264.7 cells; test: MTT assay, viability of RAW 264.7 cells; assay type: cell-based; settings: compound diluted to 30 mol/L (so in the source), 12 h
Method: (§2) The effect of the compound to be tested on viability of RAW 264.7 cells at a concentration of […] was assessed through MTT assay (Methylthiazolyldiphenyl-tetrazolium bromide assay), and the inhibition on NO release in the inflammatory response of LPS-induced RAW 264.7 cells at 30 µM was determined through Griess method. Specific methods were described as follows.
An MTT solution (5 mg/mL) was prepared with a PBS buffer, filter-sterilized through a 0.22 μm filter membrane, and stored protected from light at low temperature. Each compound was dissolved in DMSO to prepare a 50 mmol/L stock solution, and stored from light at low (frozen) temperature. The stock solution was diluted to 30 mol/L with DMEM (Dulbecco's modified Eagle's medium) containing 10% FBS (fetal bovine serum). RAW264.7 cells beyond third passage were added to a culture medium and gently pipetted to detach, forming a cell suspension. 10 μL of the cell suspension was applied onto a hemocytometer slide for counting, and cells were seeded into 96-well plates at a density of 6×10^3 cells per well with 100 μL of the cell suspension per well. After incubated at 37° C. with 5% CO2 for 24 h, supernatant was removed. A zero-adjustment group (CO group) received 100 μL of medium per well, the blank group (CK group) received 100 μL of DMSO (1/1000 dilution) per well, and the experimental groups received 100 μL of the test samples per well. After 12 h, supernatant was removed, and […] of MTT solution was added into each well at 120 μL per well. After incubated in COz at a constant temperature for 4 h, supernatant was removed, and DMSO was added into each well by 150 μL per well. The mixture was shaken at 50 r/min for 10 min and subjected to an absorbance test at 492 nm. Relative cell viability (x) was calculated through a formula as follows: relative cell viability (%)=(ODTest−ODCO)/(ODCK−ODCO)×100%.

[6] = tested on: LPS-induced RAW 264.7 cells; test: Griess assay, inhibition of NO release in LPS-induced RAW 264.7 cells; assay type: cell-based; settings: Griess method, compound at 30 M (so in the source), 22 h
Method: as §2
RAW264.7 cells beyond third passage were added to a culture medium and gently pipetted to detach, forming a cell suspension. 10 μL of the cell suspension was applied onto a hemocytometer slide for counting, and cells were seeded into a 96-well plate at a density of 3×10^4 cells per well with 100 μL of the cell suspension per well. After incubated at 37° C. with […] for 24 h, supernatant was removed. The blank group received 100 μL of DMSO (1/1000 dilution) per well, a LPS (lipopolysaccharide) group received 100 μL of DMSO (1/1000 dilution) per well, and the experimental groups received 100 μL of the test samples per well. The LPS group received 1 μg/ml of LPS by […] per well, and the experimental groups received […] of LPS by 3 μg per well. After 22 h, 50 μL of supernatant was transferred into another 96-well plate, added with Griess Reagent I in a NO assay kit by 50 μL per well, then added with Griess Reagent II by 50 μL per well, and subjected to an absorbance test at 562 nm. Nitric oxide (NO) concentration was calculated based on a standard curve, which was specifically as follows: NO inhibition rate (%)=(ODLPS−ODTest)/(ODLPS−ODBlank)×100).

[7] = acetic acid-induced writhing, mice, subcutaneous
[8] = dosing concentration 0.05 mg/kg, subcutaneous, acetic acid-induced writhing, mice
[9] = dosing concentration 0.5 mg/kg, subcutaneous, acetic acid-induced writhing, mice

SMILES | ED50 [1, 7] | inhibition in vivo at 0.05 mg/kg [1, 8] | inhibition in vivo at 0.5 mg/kg [1, 9] | Acute toxicity [2] | LD50 [3] | TI [4] | RAW cell viability [5] | Inflammatory NO inhibition rate [6] | inhibition in vivo at 0.05 mg/kg [1] | inhibition in vivo at 0.5 mg/kg [1]
CCO[C@]12C[C@H](OC)[C@@]3(OC(=O)c4ccccc4)CC(C1[C@H]3OC(=O)c1ccccc1)[C@]13C4[C@@H](OC)C2[C@H]1N(CC)C[C@]4(COC)CC[C@@H]3OC (some centres unmarked) [Compound 52] | 0.479 mg/kg | 47 ± 1.8% | 64.2 ± 1.3% | − | > 100 mg/kg | >208.8 | 7.00 ± 0.98 % |  |  | 
CCO[C@]12C[C@H](OC)[C@@]3(OC(=O)c4cccs4)CC(C1[C@H]3OC(=O)c1cccs1)[C@]13C4[C@@H](OC)C2[C@H]1N(CC)C[C@]4(COC)CC[C@@H]3OC (some centres unmarked) [Compound 17] |  | 44.44 ± 0.4% | 54.7 ± 1.5% | − |  |  | 87.25 ± 2.09 ns % | 47 ± 3.49 % |  | 
CCO[C@]12C[C@H](OC)[C@@]3(OC(=O)CC(C)(C)C)CC(C1[C@H]3OC(=O)CC(C)(C)C)[C@]13C4[C@@H](OC)C2[C@H]1N(CC)C[C@]4(COC)CC[C@@H]3OC (some centres unmarked) [Compound 88] | 0.161 mg/kg | 47.7 ± 0.6% | 65.07 ± 0.6% | − | > 100 mg/kg | >621.1 | 74.05 ± 10.06 % |  |  | 
CCO[C@]12C[C@H](OC)[C@@]3(OC(=O)C4CCCCC4)CC(C1[C@H]3OC(=O)C1CCCCC1)[C@]13C4[C@@H](OC)C2[C@H]1N(CC)C[C@]4(COC)CC[C@@H]3OC (some centres unmarked) [Compound 5] | 0.083 mg/kg | 49.7 ± 1.1% |  | − | > 100 mg/kg | >1204.8 | 28.05 ± 4.84 % |  |  | 
CCO[C@]12C[C@H](OC)[C@@]3(OC(=O)c4ccc(Cl)cc4)CC(C1[C@H]3OC(=O)c1ccc(OC)cc1)[C@]13C4[C@@H](OC)C2[C@H]1N(CC)C[C@]4(COC)CC[C@@H]3OC (some centres unmarked) [Compound 83] | 0.146 mg/kg | 47 ± 0.9% | 70.8 ± 1.2% | − | 76.6 mg/kg | 524.9 | 85.21 ± 7.83 ^ % | 50 ± 4.52 % |  | 
CCO[C@]12C[C@H](OC)[C@@]3(OC(=O)C4CCOCC4)CC(C1[C@H]3OC(=O)c1ccc(OC)cc1)[C@]13C4[C@@H](OC)C2[C@H]1N(CC)C[C@]4(COC)CC[C@@H]3OC (some centres unmarked) [Compound 24] |  | 46.1 ± 1.7% | 50.9 ± 1.7% | − |  |  | 94.97 ± 7.74 ns % | 8 ± 2.69 % |  | 
Cc1ccc(-c2cc(C(F)(F)F)nn2-c2ccc(S(N)(=O)=O)cc2)cc1 [Celecoxib, reference compound] |  |  |  |  |  |  | 93.09 ± 2.14 ns % | 74 ± 2.2 % |  | 
CCO[C@]12C[C@H](OC)[C@@]3(OC(=O)c4ccc([N+](=O)[O-])cc4)CC(C1[C@H]3OC(=O)c1ccc([N+](=O)[O-])cc1)[C@]13C4[C@@H](OC)C2[C@H]1N(CC)C[C@]4(COC)CC[C@@H]3OC (some centres unmarked) [Compound 38] |  |  |  | − |  |  | 99.37 ± 10.29 ns % | 23 ± 5.6 % | 42.4 ± 1.5% | 56.2 ± 1%
CCCC(=O)O[C@]12CC3C([C@H]1OC(=O)c1ccc(OC)cc1)[C@](OC(C)=O)(C[C@@H]2OC)C1[C@H](OC)C2[C@@]4(COC)CC[C@H](OC)[C@@]32[C@@H]1N(CC)C4 (some centres unmarked) [Compound 79] |  | 37.9 ± 2% |  | − |  |  | 101.29 ± 2.63 ns % | 42 ± 4.69 % |  | 
CCO[C@]12C[C@H](OC)[C@@]3(OC(=O)c4ccccc4F)CC(C1[C@H]3OC(=O)c1ccccc1F)[C@]13C4[C@@H](OC)C2[C@H]1N(CC)C[C@]4(COC)CC[C@@H]3OC (some centres unmarked) [Compound 69] | 0.106 mg/kg | 40.3 ± 0.7% | 60.6 ± 1.9% | − | > 100 mg/kg | >943.4 | 95.11 ± 5.66 ns % | 40 ± 3.46 % |  | 
CCO[C@]12C[C@H](OC)[C@@]3(OC(=O)c4ccc(OC)cc4)CC(C1[C@H]3OC(=O)c1ccc(OC)cc1)[C@]13C4[C@@H](OC)C2[C@H]1N(CC)C[C@]4(COC)CC[C@@H]3OC (some centres unmarked) [Compound 13] | 0.082 mg/kg | 49.4 ± 1.3% |  | − | > 100 mg/kg | >1219.5 | 8.29 ± 2.8 % |  |  | 
CCO[C@]12C[C@H](OC)[C@@]3(OC(=O)c4ccc([N+](=O)[O-])cc4)CC(C1[C@H]3OC(=O)c1ccc(OC)cc1)[C@]13C4[C@@H](OC)C2[C@H]1N(CC)C[C@]4(COC)CC[C@@H]3OC (some centres unmarked) [Compound 39] | 0.195 mg/kg | 51.1 ± 1.4% |  | − | > 100 mg/kg | >512.8 | 6.97 ± 0.93 % |  |  | 
CCO[C@]12C[C@H](OC)[C@@]3(OC(=O)c4ccc(F)cc4)CC(C1[C@H]3OC(=O)c1ccc(F)cc1)[C@]13C4[C@@H](OC)C2[C@H]1N(CC)C[C@]4(COC)CC[C@@H]3OC (some centres unmarked) [Compound 59] |  | 43.5 ± 2.5% | 57.6 ± 0.9% | − |  |  | 7.00 ± 1.38 % |  |  | 
CCO[C@]12C[C@H](OC)[C@@]3(OC(=O)C4CCOCC4)CC(C1[C@H]3OC(=O)C1CCOCC1)[C@]13C4[C@@H](OC)C2[C@H]1N(CC)C[C@]4(COC)CC[C@@H]3OC (some centres unmarked) [Compound 23] | 0.073 mg/kg | 57.9 ± 0.6% |  | − | > 100 mg/kg | >1369.9 | 81.35 ± 3.48 % |  |  | 
CCO[C@]12C[C@H](OC)[C@@]3(OC(=O)CC(C)(C)C)CC(C1[C@H]3OC(=O)c1ccc(OC)cc1)[C@]13C4[C@@H](OC)C2[C@H]1N(CC)C[C@]4(COC)CC[C@@H]3OC (some centres unmarked) [Compound 90] |  | 41.9 ± 1.9% | 59 ± 0.8% | − |  |  | 101.74 ± 7.63 ns % | 12 ± 4.85 % |  | 
CCN1C[C@]2(COC)CC[C@H](OC)[C@@]34C5C[C@]6(OC(=O)c7ccco7)[C@@H](OC)C[C@@](OC(C)=O)(C5[C@H]6OC(=O)c5ccc(OC)cc5)C([C@H](OC)C23)[C@@H]14 (some centres unmarked) [Compound 12] |  | 45.7 ± 0.6% | 54.2 ± 1.4% | − |  |  | 119.75 ± 1.11***^ % | 17 ± 5.14 % |  | 
